Each compound was assayed on KRAS G12V dependent lung adenocarcinoma cell line, NCI-H441 (assay: Cellular pERK (Thr202/Tyr204) FRET/HTRF assay). Conditions: Homo sapiens, NCI-H441, cellular pERK (Thr202/Tyr204) HTRF, NCI-H441 cells.
Type: cell-based
Procedure, shortened: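 Using a mix-and-read HTRF kit, phospho-ERK (Thr202/Tyr204) was detected in NCI-H441 lysates following 1 hr compound incubation at 37 °C, 5% CO2. Cells had been seeded overnight beforehand, and IC50 was derived by curve fitting.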

Row | IC50 | Structure (SMILES)
1 | 500 to 10000 nM | [2H]C([2H])(Oc1nc(N2CCOC[C@H]3[C@H](F)[C@H]32)c2cc(C(F)(F)F)c(-c3cccc4ccccc34)c(F)c2n1)[C@@]12CCCN1C[C@H](F)C2 [Example 415, (1S,7S,8S)-8-fluoro-2-(8-fluoro-2-(((2R,7aS)-2-fluorotetrahydro-1H-pyrrolizin-7a(5H)-yl)methoxy-d2)-7-(naphthalen-1-yl)-6-(trifluoromethyl)quinazolin-4-yl)-5-oxa-2-azabicyclo[5.1.0]octane]
2 | < 50 nM | C#Cc1c(F)ccc2cc(N)cc(-c3ncc4c(N5CCCC[C@H]6[C@H](F)[C@H]65)nc(OC[C@]56C/C(=C/F)CN5CCC65CC5)nc4c3F)c12 [Example 404, 5-Ethynyl-6-fluoro-4-(8-fluoro-4-((1S,7R,8S)-8-fluoro-2-azabicyclo[5.1.0]octan-2-yl)-2-(((R,Z)-6′-(fluoromethylene)tetrahydrospiro[cyclopropane-1,1′-pyrrolizin]-7a′(5′H)-yl)methoxy)pyrido[4,3-d]pyrimidin-7-yl)naphthalen-2-amine]
3 | 500 to 10000 nM | [2H]C([2H])(Oc1nc(N2CCOC[C@@H]3[C@@H](F)[C@@H]32)c2cc(Cl)c(-c3cc(N)cc(C4CC4)c3C(F)(F)F)c(F)c2n1)[C@@]12CCCN1C[C@H](F)C2 [Example 184, 3-(6-chloro-8-fluoro-4-((1R,7R,8R)-8-fluoro-5-oxa-2-azabicyclo[5.1.0]octan-2-yl)-2-(((2R,7aS)-2-fluorotetrahydro-1H-pyrrolizin-7a(5H)-yl)methoxy-d2)quinazolin-7-yl)-5-cyclopropyl-4-(trifluoromethyl)aniline]
4 | < 50 nM | C#Cc1c(F)ccc2cc(N)cc(-c3ncc4c(N5CCOC[C@H]6[C@H](F)[C@H]65)nc(OC[C@]56C[C@@]7(C[C@H]7F)CN5CCC65CC5)nc4c3F)c12 (single isomer, unassigned) [Example 233]
5 | < 50 nM | [2H]C([2H])(Oc1nc(N2CCCC[C@H]3[C@H](F)[C@H]32)c2cnc(-c3cc(N)cc4ccc(Cl)c(C#C)c34)c(F)c2n1)[C@@]12CCCN1[C@H](C)[C@H](F)C2 [Example 416, 6-Chloro-5-ethynyl-4-(8-fluoro-2-(((2R,3R,7aS)-2-fluoro-3-methyltetrahydro-1H-pyrrolizin-7a(5H)-yl)methoxy-d2)-4-((1S,7R,8S)-8-fluoro-2-azabicyclo[5.1.0]octan-2-yl)pyrido[4,3-d]pyrimidin-7-yl)naphthalen-2-amine]
6 | < 50 nM | [2H]C([2H])(Oc1nc(N2CCOC[C@H]3[C@H](F)[C@H]32)c2cnc(-c3cc(N)cc4ccc(F)c(C#C)c34)c(F)c2n1)[C@@]12CCCN1C[C@@H](CF)C2 (single isomer, unassigned) [Example 265]
7 | < 50 nM | C#Cc1c(F)c(F)cc2cccc(-c3ncc4c(N5CCOC[C@H]6[C@H](F)[C@H]65)nc(OC[C@@]56CCCN5CC(=C(F)F)C6)nc4c3F)c12 [Example 105, (1S,7S,8S)-2-(2-(((S)-2-(difluoromethylene)tetrahydro-1H-pyrrolizin-7a(5H)-yl)methoxy)-7-(8-ethynyl-6,7-difluoronaphthalen-1-yl)-8-fluoropyrido[4,3-d]pyrimidin-4-yl)-8-fluoro-5-oxa-2-azabicyclo[5.1.0]octane]
8 | < 50 nM | C#Cc1c(F)ccc2cc(N)cc(-c3ncc4c(N5CCOC[C@H]6[C@H](F)[C@H]65)nc(OC[C@]56CC(=C)CN5CCC65CC5)nc4c3C)c12 [Example 429, 5-ethynyl-6-fluoro-4-(4-((1S,7S,8S)-8-fluoro-5-oxa-2-azabicyclo[5.1.0]octan-2-yl)-8-methyl-2-(((R)-6′-methylenetetrahydrospiro[cyclopropane-1,1′-pyrrolizin]-7a′(5′H)-yl)methoxy)pyrido[4,3-d]pyrimidin-7-yl)naphthalen-2-amine]
9 | < 50 nM | C#Cc1c(F)ccc2cc(N)cc(-c3ncc4c(N5CCOC[C@H]6[C@H](F)[C@H]65)nc(OC[C@@]56CCCN5[C@@H](C)[C@H](F)C6)nc4c3F)c12 [Example 278, 5-ethynyl-6-fluoro-4-(8-fluoro-2-(((2R,3S,7aS)-2-fluoro-3-methyltetrahydro-1H-pyrrolizin-7a(5H)-yl)methoxy)-4-((1S,7S,8S)-8-fluoro-5-oxa-2-azabicyclo[5.1.0]octan-2-yl)pyrido[4,3-d]pyrimidin-7-yl)naphthalen-2-amine]
10 | < 50 nM | C#Cc1c(F)ccc2cc(N)cc(-c3ncc4c(N5CCOC[C@H]6[C@H](F)[C@H]65)nc(OC[C@]56C[C@@H](C)CN5CCC65CC5)nc4c3F)c12 (single isomer, unassigned) [Example 242]
11 | < 50 nM | [2H]C([2H])(Oc1nc(N2CCOC[C@H]3[C@H](F)[C@H]32)c2cnc(-c3cc(N)cc4ccc(F)c(C#C)c34)c(F)c2n1)[C@@]12CCCN1CC(F)(F)C2 [Example 220, 4-(2-(((S)-2,2-difluorotetrahydro-1H-pyrrolizin-7a(5H)-yl)methoxy-d2)-8-fluoro-4-((1S,7S,8S)-8-fluoro-5-oxa-2-azabicyclo[5.1.0]octan-2-yl)pyrido[4,3-d]pyrimidin-7-yl)-5-ethynyl-6-fluoronaphthalen-2-amine]
12 | < 50 nM | C#Cc1c(F)ccc2cc(N)cc(-c3ncc4c(N5CCOC[C@H]6[C@H](F)[C@H]65)nc(OC[C@]56C[C@]7(C[C@@H]7F)CN5CCC65CC5)nc4c3F)c12 (single isomer, unassigned) [Example 232]
13 | < 50 nM | C#Cc1c(F)ccc2cc(N)cc(-c3ncc4c(N5CCOC[C@H]6[C@H](F)[C@H]65)nc(OC[C@@]56CCCN5C[C@H](F)C6)nc4c3F)c12 [Example 212, 5-Ethynyl-6-fluoro-4-(8-fluoro-4-((1S,7S,8S)-8-fluoro-5-oxa-2-azabicyclo[5.1.0]octan-2-yl)-2-(((2R,7aS)-2-fluorotetrahydro-1H-pyrrolizin-7a(5H)-yl)methoxy)pyrido[4,3-d]pyrimidin-7-yl)naphthalen-2-amine]
14 | 500 to 10000 nM | [2H]C([2H])(Oc1nc(N2CCOC[C@@H]3[C@@H](F)[C@@H]32)c2cc(F)c(-c3cc(N)c(F)c(C)c3C(F)(F)F)c(F)c2n1)[C@@]12CCCN1C[C@H](F)C2 [Example 178, 5-(6,8-difluoro-4-((1R,7R,8R)-8-fluoro-5-oxa-2-azabicyclo[5.1.0]octan-2-yl)-2-(((2R,7aS)-2-fluorotetrahydro-1H-pyrrolizin-7a(5H)-yl)methoxy-d2)quinazolin-7-yl)-2-fluoro-3-methyl-4-(trifluoromethyl)aniline]

Same assay, conditions: Homo sapiens, NCI-H441, pERK HTRF, NCI-H441 cells (KRAS G12V)

Row | IC50 | Structure (SMILES)
15 | < 50 nM | [2H]C([2H])(Oc1nc(N2CCCCC[C@H]3C[C@H]32)c2cnc(-c3cc(N)cc4cc(F)c(F)c(C#C)c34)c(F)c2n1)[C@@]12CCCN1C[C@H](F)C2 [Example 56, 4-(4-((1R,8S)-2-azabicyclo[6.1.0]nonan-2-yl)-8-fluoro-2-(((2R,7aS)-2-fluorotetrahydro-1H-pyrrolizin-7a(5H)-yl)methoxy-d2)pyrido[4,3-d]pyrimidin-7-yl)-5-ethynyl-6,7-difluoronaphthalen-2-amine]
16 | < 50 nM | [2H]C([2H])(Oc1nc(N2CCCO[C@H]3C[C@H]32)c2c(OC)nc(-c3cc(O)cc4ccc(F)c(C#C)c34)c(F)c2n1)[C@@]12CCCN1C[C@H](F)C2 [Example 36, 4-(4-((1S,7R)-2-Oxa-6-azabicyclo[5.1.0]octan-6-yl)-8-fluoro-2-(((2R,7aS)-2-fluorotetrahydro-1H-pyrrolizin-7a(5H)-yl)methoxy-d2)-5-methoxypyrido[4,3-d]pyrimidin-7-yl)-5-ethynyl-6-fluoronaphthalen-2-ol]
17 | < 50 nM | [2H]C([2H])(Oc1nc(N2CCCO[C@H]3[C@H](F)[C@H]32)c2cnc(-c3cccc4ccc(F)c(OCF)c34)c(F)c2n1)[C@@]12CCCN1C[C@H](F)C2 [Example 92, (1R,7S,8R)-8-Fluoro-6-(8-fluoro-7-(7-fluoro-8-(fluoromethoxy)naphthalen-1-yl)-2-(((2R,7aS)-2-fluorotetrahydro-1H-pyrrolizin-7a(5H)-yl)methoxy-d2)pyrido[4,3-d]pyrimidin-4-yl)-2-oxa-6-azabicyclo[5.1.0]octane]

Same assay, conditions: Homo sapiens; pERK HTRF, NCI-H441 cells (KRAS G12V)

Row | Structure (SMILES) | IC50
18 | [2H]C([2H])([2H])Oc1c(F)ccc2cncc(-c3ncc4c(N5CCOC[C@H]6[C@H](F)[C@H]65)nc(OC([2H])([2H])[C@@]56CCCN5C[C@H](F)C6)nc4c3F)c12 [Example 84, (1S,7S,8S)-8-Fluoro-2-(8-fluoro-7-(6-fluoro-5-(methoxy-d3)isoquinolin-4-yl)-2-(((2R,7aS)-2-fluorotetrahydro-1H-pyrrolizin-7a(5H)-yl)methoxy-d2)pyrido[4,3-d]pyrimidin-4-yl)-5-oxa-2-azabicyclo[5.1.0]octane] | < 50 nM

Same assay, conditions: cellular pERK (Thr202/Tyr204) HTRF, NCI-H441 cells

Row | IC50 | Structure (SMILES)
19 | < 50 nM | [2H]C([2H])(Oc1nc(N2CCOC[C@H]3[C@H](F)[C@H]32)c2cc(Cl)c(-c3cc(N)cc4ccc(F)c(C#C)c34)c(F)c2n1)[C@@]12CCCN1C[C@H](F)C2 (atropisomer, axis not shown; (aS)) [Example 359, 4-((R)-6-chloro-8-fluoro-4-((1S,7S,8S)-8-fluoro-5-oxa-2-azabicyclo[5.1.0]octan-2-yl)-2-(((2R,7aS)-2-fluorotetrahydro-1H-pyrrolizin-7a(5H)-yl)methoxy-d2)quinazolin-7-yl)-5-ethynyl-6-fluoronaphthalen-2-amine]

Same assay, conditions: cellular pERK HTRF, NCI-H441 (KRAS G12V) cells

Row | IC50 | Structure (SMILES)
20 | < 50 nM | [2H]C([2H])(Oc1nc(N2CCOC[C@H]3[C@H](F)[C@H]32)c2cc(F)c(-c3cc(O)cc4ccc(F)c(C#C)c34)c(F)c2n1)[C@@]12CCCN1C[C@H](F)C2 (atropisomer, axis not shown; (aS)) [Example 453, 4-((R)-6,8-difluoro-4-((1S,7S,8S)-8-fluoro-5-oxa-2-azabicyclo[5.1.0]octan-2-yl)-2-(((2R,7aS)-2-fluorotetrahydro-1H-pyrrolizin-7a(5H)-yl)methoxy-d2)quinazolin-7-yl)-5-ethynyl-6-fluoronaphthalen-2-ol]

— patent US20250282799A1, “SUBSTITUTED PYRIDO[4,3-d]PYRIMIDINES AS KRAS MODULATORS” (Alterome Therapeutics, Inc., priority 2023, published 2025)
